Measured values reported in US8541473B2, “3-aminoxalyl-aminobenzamide derivatives and insecticidal and miticidal agents containing same as active ingredient” (Agro-Kanesho Co., Ltd., priority 2009, dated 2013).

Tests used:
Assay type in all cases: in vivo
[1] = tested on: female adults of Tetranychus urticae; assay: Miticidal effect on adults of Tetranychus urticae (spray on bean leaf-disks); details: for rate of killed adults: 4 days after drug-spray, agonized adults regarded as killed; for insecticidal effect: comparative compounds, result in words, stated against the 50 ppm result
Protocol: A polyethylene cup having a volume of 430 ml and filled with water was covered with a cap in which a hole (diameter: about 5 mm) had been formed at the center thereof. A cut having a width of about 5 mm was made on a circular filter paper having a diameter of 6.5 cm, the strip-like portion of the filter paper, which hung down, was inserted into the cup through the hole thereof in such a manner that the portion was immersed in the water contained in the cup, and absorbent cotton was put on the filter paper so that the water in the cup was always supplied to the absorbent cotton. Then, two leaf-disks (2 cm×5 cm) prepared from the primary leaves of bean were put on the absorbent cotton and then these two leaf-disks were inoculated with 10 female adults of Tetranychus urticae. This cup was placed in a cylinder of acrylic resin having a height of 50 cm and an inner diameter of 10 cm and a water-diluted emulsion prepared according to the same procedures used in the foregoing drug-preparation Example 1 was then sprayed on each cup in an amount of 1.35 ml per cup using an air brush (one concentration, once repeated). After the agricultural chemical was sprayed, the cups were kept in a thermostatic chamber maintained at a temperature of 25° C. After 4 days from the drug-spray, the adults were examined, under the observation by a prism binocular, for whether they were died or not and whether they were in agony or not and the rates of killed mites (adults) (%) were determined, while the agonized adults were regarded as killed ones. In this respect, the comparative compounds used in this test were compounds A and B disclosed in JP-A-2006-306771.

[2] = tested on: larvae of Plutella xylostella; assay: Insecticidal effect on larvae of Plutella xylostella (spray on potted Chinese cabbage); details: for rate of killed insects (larvae): 5 days after release of larvae, agonized larvae regarded as killed; for insecticidal effect: comparative compounds, result in words, stated against the 500 ppm result
Protocol: The seeds of Chinese cabbage were sowed in a pot and then the seedlings were raised over 3 weeks. A water-diluted emulsion prepared according to the procedures used in the foregoing drug-preparation Example 1 was sufficiently sprayed on the leaves of these potted plants using an air brush (one concentration, once repeated). After the drug-containing liquid was air-dried, the plants were kept in a thermostatic chamber maintained at 25° C. and the larvae of the insect were set free. After 5 days from the release of the larvae, the latter was examined for whether they were died or not and whether they were in agony or not and the rates of killed insects (larvae) (%) were determined, while the agonized larvae were regarded as killed ones. In this respect, the comparative compounds used in this test were compounds A and B disclosed in JP-A-2006-306771 (Patent Document 25).

[3] = tested on: nymphs of Myzus persicae; assay: Effect of killing larvae of Myzus persicae (leaf piece immersion); details: for rate of killed nymphs: 7th day after treatment, agonized nymphs regarded as killed; for insecticidal effect: comparative compounds, result in words, stated against the 50 ppm result
Protocol: Three each of adults of Myzus persicae were inoculated on a cut piece (having a size of 3 cm×4 cm) of the leaf of Chinese cabbage and they were made breed for 48 hours within a thermostatic chamber maintained at a temperature of 25° C. After the removal of the adults, each cut piece of the leaf was immersed in a water-diluted emulsion prepared according to the same procedures used in the foregoing Drug-Preparation Example 1 for 5 seconds, and then kept in a thermostatic chamber maintained at 25° C. On 7th day after the foregoing treatment, the nymphs were inspected for whether they were died or not and whether they were in agony or not and the rates (%) of killed nymphs of the plant lice were determined, while the agonized nymphs were regarded as killed ones. In this respect, the comparative compounds used in this test were compounds A and B disclosed in JP-A-2006-306771.

CCc1cc(C(F)(C(F)(F)F)C(F)(F)F)cc(C)c1NC(=O)c1cccc(NC(=O)C(=O)N(C)CCF)c1 [Compound 1-103, 3-(N-(2-fluoroethyl)-N-methylaminooxalylamino)-N-(2-ethyl-4-heptafluoroisopropyl-6-methyl)phenylbenzamide]
rate of killed adults ([1]; 12.5 ppm): 100%

Cc1cc(C(F)(C(F)(F)F)C(F)(F)F)cc(C)c1NC(=O)c1cccc(NC(=O)C(N)=O)c1 [Compound 1-1]
rate of killed insects (larvae) ([2]; 500 ppm): 100%

Cc1cc(C(F)(C(F)(F)F)C(F)(F)F)cc(C)c1NC(=O)c1cccc(NC(=O)C(=O)NCCCCl)c1 [Compound 1-83]
rate of killed insects (larvae) ([2]; 50 ppm): 100%

CCc1cc(C(F)(F)C(F)(F)C(F)(F)F)cc(C)c1NC(=O)c1cccc(NC(=O)C(=O)N(C)C(C)(C)C)c1 [Compound 2-2]
rate of killed nymphs ([3]; 12.5 ppm): 100%

CCN(CC)C(=O)C(=O)Nc1cccc(C(=O)Nc2c(C)cc(C(F)(C(F)(F)F)C(F)(F)F)cc2C)c1 [Compound 1-30]
rate of killed insects (larvae) ([2]; 50 ppm): 100%

CCc1cc(C(F)(C(F)(F)F)C(F)(F)F)cc(C)c1NC(=O)c1cccc(NC(=O)C(=O)N(C)C2CCC2)c1 [Compound 1-45]
rate of killed insects (larvae) ([2]; 12.5 ppm): 100%

CCc1cc(C(F)(F)C(F)(F)C(F)(F)F)cc(C)c1NC(=O)c1cccc(NC(=O)C(=O)N(C)CC(F)(F)F)c1 [Compound 2-3]
rate of killed insects (larvae) ([2]; 12.5 ppm): 100%

Cc1cc(C(F)(C(F)(F)F)C(F)(F)F)cc(C)c1NC(=O)c1cccc(NC(=O)C(=O)NCCBr)c1 [Compound 1-80]
rate of killed insects (larvae) ([2]; 500 ppm): 100%

Cc1cc(C(F)(C(F)(F)F)C(F)(F)F)cc(C)c1NC(=O)c1cccc(NC(=O)C(=O)NC2CCCC2)c1 [Compound 1-19]
rate of killed insects (larvae) ([2]; 50 ppm): 100%

CCc1cc(C(F)(C(F)(F)F)C(F)(F)F)cc(CC)c1NC(=O)c1cccc(NC(=O)C(=O)N(C)CC)c1 [Compound 1-57]
rate of killed insects (larvae) ([2]; 5 ppm): 100%

CCc1cc(C(F)(C(F)(F)F)C(F)(F)F)cc(C)c1NC(=O)c1cccc(NC(=O)C(=O)N(C)CC(F)F)c1 [Compound 1-100]
rate of killed adults ([1]; 12.5 ppm): 100%

Cc1cc(C(F)(C(F)(F)F)C(F)(F)F)cc(C)c1NC(=O)c1cccc(NC(=O)C(=O)N(C)C(C)C)c1 [Compound 1-24]
rate of killed nymphs ([3]; 50 ppm): 100%

CC(C)c1cc(C(F)(C(F)(F)F)C(F)(F)F)cc(Br)c1NC(=O)c1cccc(NC(=O)C(=O)N(C)CC(F)(F)F)c1 [Compound 1-96]
rate of killed insects (larvae) ([2]; 12.5 ppm): 100% | rate of killed adults ([1]; 12.5 ppm): 100%

Cc1cc(C(F)(C(F)(F)F)C(F)(F)Br)cc(C)c1NC(=O)c1cccc(NC(=O)C(=O)N(C)CC(F)(F)F)c1 (centres unmarked) [Compound 2-15]
rate of killed nymphs ([3]; 12.5 ppm): 100%

CCN(C)C(=O)C(=O)Nc1cccc(C(=O)Nc2c(Br)cc(C(F)(C(F)(F)F)C(F)(F)F)cc2C(C)C)c1 [Compound 1-74]
rate of killed adults ([1]; 50 ppm): 100%

CCc1cc(C(F)(C(F)(F)F)C(F)(F)F)cc(C)c1NC(=O)c1cccc(NC(=O)C(=O)N(C)CC(F)(F)F)c1 [Compound 1-87]
rate of killed nymphs ([3]; 5 ppm): 100% | rate of killed nymphs ([3]; 50 ppm): 100%

Cc1cc(C(F)(C(F)(F)F)C(F)(F)F)cc(I)c1NC(=O)c1cccc(NC(=O)C(=O)N(C)C(C)(C)C)c1 [Compound 1-65]
rate of killed nymphs ([3]; 12.5 ppm): 100%

Cc1cc(C(F)(C(F)(F)F)C(F)(F)F)cc(C)c1NC(=O)c1cccc(NC(=O)C(=O)N(C)C)c1 [Compound 1-21]
rate of killed nymphs ([3]; 50 ppm): 100%

CCc1cc(C(F)(C(F)(F)F)C(F)(F)F)cc(Br)c1NC(=O)c1cccc(NC(=O)C(=O)N(C)CC(F)F)c1 [Compound 1-109]
rate of killed insects (larvae) ([2]; 12.5 ppm): 100% | rate of killed insects (larvae) ([2]; 50 ppm): 100% | rate of killed insects (larvae) ([2]; 500 ppm): 100% | rate of killed adults ([1]; 12.5 ppm): 100% | rate of killed adults ([1]; 50 ppm): 100% | rate of killed nymphs ([3]; 12.5 ppm): 100% | rate of killed nymphs ([3]; 50 ppm): 100%

CCc1cc(C(F)(C(F)(F)F)C(F)(F)F)cc(C)c1NC(=O)c1cccc(NC(=O)C(=O)N(CC)CC(F)(F)F)c1 [Compound 1-97]
rate of killed nymphs ([3]; 12.5 ppm): 100%

COC(=O)C(=O)Nc1cccc(C(=O)Nc2c(C)cc(C(F)(C(F)(F)F)C(F)(F)F)cc2C)c1 [compound A, reference compound]
insecticidal effect [2]: did not show any insecticidal effect | insecticidal effect [1]: did not show any insecticidal effect | insecticidal effect [3]: did not show any insecticidal effect

CCc1cc(C(F)(C(F)(F)F)C(F)(F)F)cc(C)c1NC(=O)c1cccc(NC(=O)C(=O)N(CC)C(C)(C)C)c1 [Compound 1-50]
rate of killed adults ([1]; 12.5 ppm): 100%

Cc1cc(C(F)(C(F)(F)F)C(F)(F)F)ccc1NC(=O)c1cccc(NC(=O)C(=O)N(C)C)c1 [Compound 1-53]
rate of killed insects (larvae) ([2]; 50 ppm): 100%

CCc1cc(C(F)(C(F)(F)F)C(F)(F)F)cc(C)c1NC(=O)c1cccc(NC(=O)C(=O)N(C)CCCl)c1 [Compound 1-78]
rate of killed adults ([1]; 50 ppm): 100%

COc1cc(C(F)(C(F)(F)F)C(F)(F)F)cc(Cl)c1NC(=O)c1cccc(NC(=O)C(=O)N(C)CC(F)(F)F)c1 [Compound 1-112]
rate of killed insects (larvae) ([2]; 12.5 ppm): 100% | rate of killed insects (larvae) ([2]; 50 ppm): 100% | rate of killed adults ([1]; 50 ppm): 100%

CCc1cc(C(F)(C(F)(F)F)C(F)(F)F)cc(C)c1NC(=O)c1cccc(NC(=O)C(=O)N(C)C2CCCC2)c1 [Compound 1-47]
rate of killed insects (larvae) ([2]; 50 ppm): 100% | rate of killed nymphs ([3]; 50 ppm): 100%

CCc1cc(C(F)(C(F)(F)F)C(F)(F)F)cc(C)c1NC(=O)c1cccc(NC(=O)C(=O)N(C)C(C)(C)C)c1 [Compound 1-44]
rate of killed insects (larvae) ([2]; 5 ppm): 100% | rate of killed adults ([1]; 5 ppm): 100% | rate of killed nymphs ([3]; 50 ppm): 100%

CCc1cc(C(F)(C(F)(F)F)C(F)(F)F)cc(C)c1NC(=O)c1cccc(NC(=O)C(=O)N(C)C(C)C)c1 [Compound 1-40]
rate of killed adults ([1]; 5 ppm): 100%

CCOC(=O)C(=O)Nc1cccc(C(=O)Nc2c(C)cc(C(F)(C(F)(F)F)C(F)(F)F)cc2C)c1 [compound B, reference compound]
insecticidal effect [2]: did not show any insecticidal effect | insecticidal effect [1]: did not show any insecticidal effect | insecticidal effect [3]: did not show any insecticidal effect

CCc1cc(C(F)(C(F)(F)F)C(F)(F)F)cc(C)c1NC(=O)c1cccc(NC(=O)C(=O)N(C)C(C)(C)CC)c1 [Compound 1-46]
rate of killed adults ([1]; 12.5 ppm): 100%

Cc1cc(C(F)(C(F)(F)F)C(F)(F)F)cc(C)c1NC(=O)c1cccc(NC(=O)C(=O)N2CCCC2)c1 [Compound 1-33, 3-(pyrrolidin-1-yl-oxalylamino)-N-(2,6-dimethyl-4-heptafluoroisopropyl)phenylbenzamide]
rate of killed nymphs ([3]; 50 ppm): 100%

CCN(C)C(=O)C(=O)Nc1cccc(C(=O)Nc2c(C)cc(C(F)(C(F)(F)F)C(F)(F)F)cc2Br)c1 [Compound 1-62]
rate of killed insects (larvae) ([2]; 12.5 ppm): 100% | rate of killed insects (larvae) ([2]; 50 ppm): 100% | rate of killed insects (larvae) ([2]; 500 ppm): 100%

Cc1cc(C(F)(C(F)(F)F)C(F)(F)F)cc(C)c1NC(=O)c1cccc(NC(=O)C(=O)NCCCl)c1 [Compound 1-75]
rate of killed insects (larvae) ([2]; 5 ppm): 100%

CCN(C)C(=O)C(=O)Nc1cccc(C(=O)Nc2c(Cl)cc(C(F)(C(F)(F)F)C(F)(F)F)cc2OC(F)(F)F)c1 [Compound 1-115]
rate of killed nymphs ([3]; 12.5 ppm): 100%

Cc1cc(C(F)(C(F)(F)F)C(F)(F)F)cc(C)c1NC(=O)c1cccc(NC(=O)C(=O)N(C)C(C)(C)C)c1 [Compound 1-28]
rate of killed insects (larvae) ([2]; 5 ppm): 100% | rate of killed adults ([1]; 5 ppm): 100% | rate of killed nymphs ([3]; 50 ppm): 100%
